Among the test systems are ACHN; DU-145; HL-60; HOP-62; HT-29; IGROV-1; KM12; LOX IMVI; MCF7; MDA-MB-231; MOLT-4; OVCAR-5; OVCAR-8; SK-MEL-28; SK-MEL-2; SK-MEL-5; SR; T47D; UACC-257; Malme-3M.
What all share (test): NCI tumour cell line growth inhibition, 48 h

Here are results for eleven compounds from ChEMBL document CHEMBL1201862, “PubChem BioAssay data set” (2004).

Each structure is given as a SMILES string.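 Briefly, cells in 96-well plates were exposed to five compound concentrations for 48 h, and endpoints were estimated by linear interpolation. The concentration for 50% growth inhibition is given as GI50.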 The source made the active and inactive calls. Cut-off read from the data, not from the text of the source: active = GI50 up to about 1.1 µM and inactive = higher. A value given as a limit tells only on which side of the number the result lay.

With `SC1CCCN(Cc2ccccc2)C1` (configuration not stated), the GI50 in the assay with ACHN is 74.8 µM (inactive); in the assay on DU-145 it was > 100 µM (inactive); in the assay with HL-60, 34.8 µM (inactive); with HOP-62, > 100 µM (inactive); in the assay on HT-29, 21 µM (inactive); with IGROV-1, 59.8 µM (inactive). For the same compound, the GI50 in the assay with KM12 is 34.1 µM (inactive); in the assay on LOX IMVI, 16.5 µM (inactive); in the assay with MCF7, 20.8 µM (inactive); in the assay with MDA-MB-231, 56.5 µM (inactive); with MOLT-4, 26.5 µM (inactive); in the assay on OVCAR-5, > 100 µM (inactive). For the same compound, the GI50 in the assay with OVCAR-8 was 46.1 µM (inactive); in the assay with SK-MEL-28, 41.9 µM (inactive); in the assay on SK-MEL-2, 36 µM (inactive); with SK-MEL-5 it was 18.5 µM (inactive); in the assay on SR it was 27.9 µM (inactive); in the assay with T47D it was 27.5 µM (inactive). The GI50 in the assay with UACC-257 is 32.4 µM (inactive).

With `COc1ccc2c(c1)CCc1[nH]c3ccccc3c1CCCC2`, the GI50 in the assay with ACHN, in the assay with DU-145, with HL-60, in the assay on HOP-62, in the assay on HT-29 and in the assay on IGROV-1 was > 10 µM (inactive) throughout. Moreover, the GI50 with KM12, with LOX IMVI, in the assay on MCF7, in the assay with MDA-MB-231, with MOLT-4 and with Malme-3M was > 10 µM (inactive) each time. In addition, the GI50 in the assay with OVCAR-5, in the assay on OVCAR-8, in the assay with SK-MEL-28, in the assay on SK-MEL-5, with SR and in the assay with T47D was > 10 µM (inactive) throughout. For the same compound, the GI50 in the assay with UACC-257 is > 10 µM (inactive).

Turning to `CC[C@]12C=CCN3CC[C@@]4(c5cc(Br)c(OC)cc5N(C)[C@H]4[C@@](O)(C(=O)NN)[C@@H]1O)[C@@H]32`, the GI50 is 79.3 µM (inactive) with ACHN; > 100 µM (inactive) in the assay on DU-145; 37.9 µM (inactive) in the assay with HL-60; > 100 µM (inactive) in the assay with HOP-62; > 100 µM (inactive) in the assay on HT-29; 87.1 µM (inactive) with IGROV-1. Further, the GI50 with KM12 is > 100 µM (inactive); with LOX IMVI, 65.6 µM (inactive); with MCF7 it was 30.3 µM (inactive); in the assay on MDA-MB-231 it was 70.3 µM (inactive); in the assay on MOLT-4, 26.7 µM (inactive); with Malme-3M, 69.8 µM (inactive). Further, the GI50 with OVCAR-5 was > 100 µM (inactive); in the assay on OVCAR-8, 46.9 µM (inactive); in the assay with SK-MEL-28, 67.3 µM (inactive); in the assay with SK-MEL-2 it was 29.8 µM (inactive); in the assay with SK-MEL-5 it was 49.5 µM (inactive); in the assay with T47D it was 40.4 µM (inactive). The GI50 in the assay with UACC-257 was 55 µM (inactive).

Consider `O=[N+]([O-])c1ccc2[nH]ncc2c1Cl`, for which the GI50 in the assay with ACHN was 24.7 µM (inactive); in the assay on DU-145, 16.6 µM (inactive); in the assay on HL-60, 29.8 µM (inactive); with HOP-62, 50.6 µM (inactive); in the assay on HT-29, 17.9 µM (inactive); in the assay with IGROV-1 it was 18 µM (inactive). In addition, the GI50 in the assay with KM12 is 25.3 µM (inactive); in the assay with LOX IMVI, 17.5 µM (inactive); in the assay with MCF7, 41.7 µM (inactive); in the assay on MDA-MB-231, 0.0108 µM (active); in the assay with MOLT-4, 22.8 µM (inactive); with OVCAR-5, 23.6 µM (inactive). The GI50 with OVCAR-8 is 27.5 µM (inactive); in the assay on SK-MEL-28, 33.5 µM (inactive); in the assay with SK-MEL-2, 20.2 µM (inactive); with SK-MEL-5 it was 13.3 µM (inactive); with SR it was 1.03 µM (active); with T47D, 17.5 µM (inactive). The GI50 with UACC-257 was 31.2 µM (inactive).

Take `CC1(C)COCN1COC1CCCCC1`: the GI50 in the assay with ACHN, in the assay on DU-145, with HOP-62, with HT-29, with IGROV-1 and with KM12 was > 100 µM (inactive) throughout. Moreover, the GI50 in the assay with MCF7 is > 100 µM (inactive); with MDA-MB-231 it was > 100 µM (inactive); in the assay on MOLT-4 it was 24.1 µM (inactive); with Malme-3M it was > 100 µM (inactive); with OVCAR-5 it was > 100 µM (inactive); with OVCAR-8, > 100 µM (inactive). The GI50 in the assay on SK-MEL-28 was > 100 µM (inactive); in the assay with SK-MEL-2, > 100 µM (inactive); with SK-MEL-5, > 100 µM (inactive); in the assay on SR it was 20.1 µM (inactive); in the assay on T47D, > 100 µM (inactive); with UACC-257 it was > 100 µM (inactive).

Consider `Cc1ccc(S(=O)(=O)Nc2nc3ccccc3c(=O)n2C2CCCCC2)cc1`, for which the GI50 in the assay with ACHN was > 100 µM (inactive); with DU-145, > 100 µM (inactive); in the assay with HL-60 it was 57.9 µM (inactive); with HOP-62 it was > 100 µM (inactive); in the assay with HT-29, > 100 µM (inactive); with IGROV-1, > 100 µM (inactive). For the same compound, the GI50 in the assay on KM12 is > 100 µM (inactive); in the assay with LOX IMVI, > 100 µM (inactive); in the assay on MCF7, > 100 µM (inactive); in the assay with MDA-MB-231, 78.3 µM (inactive); in the assay with MOLT-4, > 100 µM (inactive); with OVCAR-5, > 100 µM (inactive). Further, the GI50 in the assay on OVCAR-8, in the assay on SK-MEL-28, in the assay with SK-MEL-2, with SK-MEL-5, in the assay with SR and in the assay with T47D was > 100 µM (inactive) each time. The GI50 in the assay with UACC-257 was > 100 µM (inactive).

Consider `CC(/C=C/c1ccccc1)=N\NC(N)=S`, for which the GI50 is 38 µM (inactive) with ACHN; 34.4 µM (inactive) in the assay with DU-145; 15.1 µM (inactive) in the assay on HL-60; > 100 µM (inactive) in the assay with HOP-62; 56.6 µM (inactive) in the assay with HT-29; 21 µM (inactive) in the assay on IGROV-1. Further, the GI50 with KM12 is 28.3 µM (inactive); in the assay with LOX IMVI it was > 100 µM (inactive); in the assay with MCF7, 33 µM (inactive); with MDA-MB-231 it was 34.6 µM (inactive); with MOLT-4 it was 24.4 µM (inactive); in the assay on Malme-3M it was 45.7 µM (inactive). The GI50 in the assay on OVCAR-5 was 58.5 µM (inactive); in the assay on OVCAR-8 it was 39 µM (inactive); with SK-MEL-28, > 100 µM (inactive); with SK-MEL-5, 38.5 µM (inactive); in the assay on SR, 23.2 µM (inactive); in the assay on T47D, 11.8 µM (inactive). In the assay with UACC-257, the GI50 was 47.9 µM (inactive).

Turning to `O=C(Cc1ccccc1CCO)NCCc1ccccc1`, the GI50 in the assay with ACHN, in the assay with DU-145, with HL-60, in the assay on HOP-62, in the assay on HT-29 and with IGROV-1 was > 100 µM (inactive) throughout. Also, the GI50 in the assay on KM12, in the assay on MCF7, in the assay with MDA-MB-231, in the assay with MOLT-4, in the assay on OVCAR-5 and in the assay on OVCAR-8 was > 100 µM (inactive) in each case. Further, the GI50 with SK-MEL-28, in the assay with SK-MEL-2, with SK-MEL-5, with SR, in the assay with T47D and in the assay with UACC-257 was > 100 µM (inactive) each time.

Take `CCOC(=O)C(C)(C(=O)OCC)/C(Cl)=C\Cl`: the GI50 in the assay on ACHN, with DU-145, with HL-60, in the assay with HOP-62, in the assay with HT-29 and in the assay on IGROV-1 was > 100 µM (inactive) each time. Also, the GI50 is > 100 µM (inactive) with KM12; > 100 µM (inactive) in the assay on LOX IMVI; 84.7 µM (inactive) in the assay on MCF7; > 100 µM (inactive) in the assay with MDA-MB-231; > 100 µM (inactive) with MOLT-4; > 100 µM (inactive) in the assay on Malme-3M. Besides, the GI50 in the assay with OVCAR-5, in the assay with OVCAR-8, in the assay on SK-MEL-28, in the assay with SK-MEL-5, with SR and in the assay on T47D was > 100 µM (inactive) each time. The GI50 in the assay with UACC-257 is > 100 µM (inactive).

For the compound `Cc1n[nH]c(=O)n1Nc1ccccc1`, the GI50 in the assay on ACHN, in the assay on DU-145, in the assay on HL-60, in the assay on HOP-62, with HT-29 and in the assay with IGROV-1 was > 100 µM (inactive) throughout. For the same compound, the GI50 with KM12, in the assay on LOX IMVI, in the assay with MCF7, in the assay on MDA-MB-231, with MOLT-4 and in the assay with Malme-3M was > 100 µM (inactive) each time. In addition, the GI50 in the assay on OVCAR-5, with OVCAR-8, in the assay on SK-MEL-28, with SK-MEL-5, with SR and with T47D was > 100 µM (inactive) throughout. In the assay with UACC-257, the GI50 is > 100 µM (inactive).

As to `O=C1/C(=C/c2ccc(O)c(CN3CCCCC3)c2)CCC/C1=C\c1ccc(O)c(CN2CCCCC2)c1`, the GI50 was 6.31 µM (inactive) in the assay with ACHN; 4.4 µM (inactive) with DU-145; 3.48 µM (inactive) with HL-60; 5.04 µM (inactive) in the assay with HOP-62; 1.51 µM (inactive) in the assay on HT-29; 5.75 µM (inactive) in the assay on IGROV-1. Besides, the GI50 with KM12 was 4.12 µM (inactive); with LOX IMVI, 7.74 µM (inactive); in the assay on MCF7, 3.26 µM (inactive); in the assay on MDA-MB-231, 5.69 µM (inactive); with MOLT-4, 4 µM (inactive); in the assay on Malme-3M it was 13.6 µM (inactive). In addition, the GI50 was 29.6 µM (inactive) in the assay on OVCAR-5; 4.48 µM (inactive) in the assay on OVCAR-8; 13.3 µM (inactive) in the assay with SK-MEL-28; 22.1 µM (inactive) in the assay on SK-MEL-2; 14 µM (inactive) with SK-MEL-5; 17.5 µM (inactive) with T47D. In addition, the GI50 in the assay on UACC-257 was 10.6 µM (inactive).
